These results are taken from patent publication US6017911A, “Pyridonecarboxylic acid derivatives and intermediates for the synthesis thereof” (Dainippon Pharmaceutical Co., Ltd., priority 1996, dated 2000).

For test [1], the system named is Pseudomonas aeruginosa No 12. The experiment in a line: In vitro antibacterial activity (MIC), Pseudomonas aeruginosa No 12. Format: cell-based. As to conditions: NO12, read-out: Minimum inhibitory concentration (MIC).
In test [2] the test system is Staphylococcus aureus 50774. As to the kind of experiment: In vitro antibacterial activity (MIC), Staphylococcus aureus 50774. It is filed as cell-based.
For test [3], the system named is Staphylococcus aureus MS16405. As to the kind of experiment: In vitro antibacterial activity (MIC), Staphylococcus aureus MS16405. Format: cell-based.
In test [4] the test system is Staphylococcus aureus 50774. As to the kind of experiment: Effect on systemic infection in mice. To be noted: 168 h; Staphylococcus aureus 50774 i.p. infection; oral, twice (immediately and 6 h after infection); survival 7 days after infection. Format: in vivo, mice (male Std-ddy strain). As to the method: The effects (ED50; mg/kg) on systemic infection in mice were determined as follows: Male Std-ddy strain mice (weighing about 20 g) were infected with each of the pathogenic bacteria shown in Table 2 by administering 5×10^3 viable cells intraperitoneally to each mouse. Then, a suspension of each test compound in 0.4% carboxymethylcellulose was orally administered twice, i.e., immediately after infection and 6 hours after infection. Seven days after infection, the ED50 value was calculated from the survival rate of each mouse group by probit analysis.
As a reference compound, there was used enoxacin [1-ethyl-6-fluoro-1,4-dihydro-4-oxo-7-(1-piperazinyl-1,8-naphthyridine-3-carboxylic acid; hereinafter abbreviated as ENX] that is an excellent antibacterial agent currently on the market.
The test compounds shown in the following Tables 1 and 2 are identified by the respective numbers of the Examples which will be given later.

Test [5] has as its system Escherichia coli NIHJ JC-2. The experiment in a line: In vitro antibacterial activity (MIC), Escherichia coli NIHJ JC-2. As to conditions: NIHJJC2, read-out: Minimum inhibitory concentration (MIC). Format: cell-based.
The mark [6] stands for this setting: Staphylococcus aureus 50774, read-out: Minimum inhibitory concentration (MIC).
[7] abbreviates: Staphylococcus aureus, MS16405, read-out: Minimum inhibitory concentration (MIC).
Where [8] appears, read: Staphylococcus aureus MS16405, read-out: Minimum inhibitory concentration (MIC).

≈ marks a conversion by molar mass, not a printed value. Read-outs that look alike come from different tables or passages of the source.

With `COc1c(N2C[C@H](N)[C@H]3OCCC[C@H]32)c(F)cc2c(=O)c(C(=O)O)cn(C3CC3)c12` (relative stereo) [Example 10], the MIC is 3.13 µg/mL (≈ 7.5 µM) in test [1], 0.013 µg/mL (≈ 0.0311 µM) in test [2] (setting [6]), 0.39 µg/mL (≈ 0.934 µM) in test [3] (setting [7]) and 0.1 µg/mL (≈ 0.24 µM) in test [5]. In test [4], this compound had an ED50 of 0.465 mg/kg.

Take `COc1c(N2C[C@@H](N)[C@H]3OCCC[C@H]32)c(F)cc2c(=O)c(C(=O)O)cn(C3CC3)c12` (relative stereo) [Example 19]: the MIC stood at 1.56 µg/mL (≈ 3.74 µM) in test [1], 0.013 µg/mL (≈ 0.0311 µM) in test [2] (setting [6]), 0.78 µg/mL (≈ 1.87 µM) in test [3] (setting [8]) and 0.1 µg/mL (≈ 0.24 µM) in test [5]. This compound also showed an ED50 in test [4] of 0.928 mg/kg.

With `CN[C@H]1CN(c2c(F)c(N)c3c(=O)c(C(=O)O)cn(C4CC4)c3c2OC)[C@@H]2CCO[C@H]12` (relative stereo) [Example 9], the MIC in test [1] is 1.56 µg/mL (≈ 3.61 µM); in test [2] (setting [6]), 0.025 µg/mL (≈ 0.0578 µM); in test [3] (setting [8]), 1.56 µg/mL (≈ 3.61 µM); in test [5] it was 0.05 µg/mL (≈ 0.116 µM). In test [4], this compound returned an ED50 of 0.415 mg/kg.

`CCn1cc(C(=O)O)c(=O)c2cc(F)c(N3CCNCC3)nc21` [ENX, reference compound]: the MIC in test [1] was found to be 0.78 µg/mL (≈ 2.44 µM); in test [2] (Staphylococcus aureus, 50774, read-out: Minimum inhibitory concentration (MIC)), 0.39 µg/mL (≈ 1.22 µM); in test [3] (setting [7]), 100 µg/mL (≈ 312 µM); in test [5], 0.05 µg/mL (≈ 0.156 µM). For the same compound, it took a dose of 9.89 mg/kg to reach the 50% effect level in test [4] (ED50).

`CN[C@H]1CN(c2nc3c(cc2F)c(=O)c(C(=O)O)cn3-c2ccc(F)cc2F)[C@@H]2CCO[C@H]12` (relative stereo) [Example 17]: the MIC turned out to be 0.78 µg/mL (≈ 1.69 µM) in test [1], 0.05 µg/mL (≈ 0.109 µM) in test [2] (setting [6]) and 0.1 µg/mL (≈ 0.217 µM) in test [5]. In addition, it took a dose of 0.78 mg/kg to reach the 50% effect level in test [4] (ED50).

On to `C#Cc1c(N2C[C@H](N)[C@H]3OCC[C@H]32)c(F)cc2c(=O)c(C(=O)O)cn(C3CC3)c12` (relative stereo) [Example 27], for which the MIC in test [1] came out at 1.56 µg/mL (≈ 3.93 µM); in test [2] (setting [6]) it was 0.025 µg/mL (≈ 0.0629 µM); in test [3] (setting [8]) it was 1.56 µg/mL (≈ 3.93 µM); in test [5], 0.025 µg/mL (≈ 0.0629 µM).

`N#Cc1c(N2C[C@H](N)[C@H]3OCC[C@H]32)c(F)cc2c(=O)c(C(=O)O)cn(C3CC3)c12` (relative stereo) [Example 38]: the values for the MIC in test [1], in test [2] (setting [6]) and in test [5] were 3.13 µg/mL (≈ 7.86 µM), 0.1 µg/mL (≈ 0.251 µM) and 0.05 µg/mL (≈ 0.126 µM), respectively.

Turning to `CN[C@H]1CN(c2c(F)cc3c(=O)c(C(=O)O)cn(C4CC4)c3c2Cl)[C@@H]2CCO[C@H]12` (relative stereo) [Example 20], the MIC in test [1] turned out to be 1.56 µg/mL (≈ 3.7 µM); in test [2] (setting [6]), 0.1 µg/mL (≈ 0.237 µM); in test [3] (setting [8]), 3.13 µg/mL (≈ 7.42 µM); in test [5], 0.05 µg/mL (≈ 0.119 µM).

For `COc1c(N2C[C@@H](N)[C@H]3OCCC[C@H]32)c(F)c(N)c2c(=O)c(C(=O)O)cn(C3CC3)c12` (relative stereo) [Example 32], the MIC in test [1] turned out to be 1.56 µg/mL (≈ 3.61 µM); in test [2] (setting [6]), 0.013 µg/mL (≈ 0.0301 µM); in test [3] (setting [8]), 0.78 µg/mL (≈ 1.8 µM); in test [5], 0.1 µg/mL (≈ 0.231 µM).

On to `N[C@H]1CN(c2nc3c(cc2F)c(=O)c(C(=O)O)cn3C2CC2)[C@@H]2CCO[C@@H]21` (relative stereo) [Example 22], for which the MIC in test [1] is 0.39 µg/mL (≈ 1.04 µM); in test [2] (setting [6]), 0.05 µg/mL (≈ 0.134 µM); in test [5], not above 0.003 µg/mL.

For the compound `Cc1c(F)c(N2C[C@@H](N)[C@H]3OCCC[C@H]32)c(C#N)c2c1c(=O)c(C(=O)O)cn2C1CC1` (relative stereo) [Example 30], the MIC in test [1] was determined as 0.78 µg/mL (≈ 1.83 µM); in test [2] (setting [6]) it was 0.013 µg/mL (≈ 0.0305 µM); in test [3] (setting [8]), 3.13 µg/mL (≈ 7.34 µM); in test [5], 0.05 µg/mL (≈ 0.117 µM).

Turning to `Nc1c(F)c(N2C[C@@H](N)[C@H]3OCCC[C@H]32)c(F)c2c1c(=O)c(C(=O)O)cn2C1CC1` (relative stereo) [Example 21], the MIC in test [1] is 0.39 µg/mL (≈ 0.928 µM); in test [2] (setting [6]), not above 0.003 µg/mL; in test [3] (setting [8]), 0.78 µg/mL (≈ 1.86 µM); in test [5], 0.013 µg/mL (≈ 0.0309 µM).

For `C=Cc1c(N2C[C@H](N)[C@H]3OCC[C@H]32)c(F)cc2c(=O)c(C(=O)O)cn(C3CC3)c12` (relative stereo) [Example 33], the MIC in test [1] was 3.13 µg/mL (≈ 7.84 µM); in test [2] (setting [6]), 0.025 µg/mL (≈ 0.0626 µM); in test [3] (setting [8]) it was 1.56 µg/mL (≈ 3.91 µM); in test [5], 0.05 µg/mL (≈ 0.125 µM).

`COc1c(N2C[C@@H](N)[C@H]3OCC[C@H]32)c(F)cc2c(=O)c(C(=O)O)cn(C3CC3)c12` (relative stereo) [Example 23]: the MIC in test [1] is 0.78 µg/mL (≈ 1.93 µM); in test [2] (setting [6]), not above 0.003 µg/mL; in test [3] (setting [8]), 0.78 µg/mL (≈ 1.93 µM); in test [5], 0.025 µg/mL (≈ 0.062 µM).

For the compound `Cc1c(F)c(N2C[C@H](N)[C@H]3OCC[C@H]32)nc2c1c(=O)c(C(=O)O)cn2-c1ccc(F)cc1F` (relative stereo) [Example 39, 7-[(1R*,5R*,8S*)-8-amino-2-oxa-6-azabicyclo[3.3.0]oct-6-yl]-6-fluoro-1-(2,4-difluorophenyl)-1,4-dihydro-5-methyl-4-oxo-1,8-naphthyridine-3-carboxylic acid], the MIC in test [1] is 0.78 µg/mL (≈ 1.69 µM); in test [2] (setting [6]), 0.025 µg/mL (≈ 0.0543 µM); in test [3] (setting [8]) it was 3.13 µg/mL (≈ 6.8 µM); in test [5], 0.2 µg/mL (≈ 0.434 µM).

Regarding `CN[C@@H]1CN(c2c(F)cc3c(=O)c(C(=O)O)cn(C4CC4)c3c2OC)[C@@H]2CCO[C@@H]21` (relative stereo) [Example 35], the MIC in test [1] turned out to be 3.13 µg/mL (≈ 7.5 µM); in test [2] (setting [6]), 0.025 µg/mL (≈ 0.0599 µM); in test [3] (setting [8]), 6.25 µg/mL (≈ 15 µM); in test [5], 0.1 µg/mL (≈ 0.24 µM).

Consider `N[C@@H]1CN(c2c(F)cc3c(=O)c(C(=O)O)cn(C4CC4)c3c2OC(F)F)[C@@H]2CCO[C@H]12` (relative stereo) [Example 37], for which the MIC in test [1] was determined as 3.13 µg/mL (≈ 7.12 µM); in test [2] (setting [6]) it was 0.05 µg/mL (≈ 0.114 µM); in test [3] (setting [8]), 6.25 µg/mL (≈ 14.2 µM); in test [5] it was 0.1 µg/mL (≈ 0.228 µM).

Turning to `N[C@H]1CN(c2nc3c(cc2F)c(=O)c(C(=O)O)cn3-c2ccc(F)cc2F)[C@@H]2CCO[C@@H]21` (relative stereo) [Example 11], the results for the MIC in test [1], in test [2] (setting [6]) and in test [5] were 0.39 µg/mL (≈ 0.874 µM), 0.013 µg/mL (≈ 0.0291 µM) and 0.25 µg/mL (≈ 0.56 µM), respectively. The compound further showed an ED50 in test [4] of 0.579 mg/kg.

`N#Cc1c(N2C[C@@H](N)[C@H]3OCCC[C@H]32)c(F)cc2c(=O)c(C(=O)O)cn(C3CC3)c12` (relative stereo) [Example 34]: the MIC is 1.56 µg/mL (≈ 3.78 µM) in test [1], 0.05 µg/mL (≈ 0.121 µM) in test [2] (setting [6]), 6.25 µg/mL (≈ 15.2 µM) in test [3] (setting [8]) and 0.05 µg/mL (≈ 0.121 µM) in test [5].

`Cc1c(F)c(N2C[C@H](N)[C@H]3OCC[C@H]32)c(C)c2c1c(=O)c(C(=O)O)cn2C1CC1` (relative stereo) [Example 24]: the MIC in test [1] amounted to 0.78 µg/mL (≈ 1.94 µM); in test [2] (setting [6]) it was 0.013 µg/mL (≈ 0.0324 µM); in test [3] (setting [8]), 1.56 µg/mL (≈ 3.89 µM); in test [5] it was 0.025 µg/mL (≈ 0.0623 µM).

Take `N[C@@H]1CN(c2nc3c(cc2F)c(=O)c(C(=O)O)cn3-c2ccc(F)cc2F)[C@@H]2CCO[C@H]12` (relative stereo) [Example 29]: the figures for the MIC in test [1], in test [2] (setting [6]) and in test [5] were 0.39 µg/mL (≈ 0.874 µM), 0.025 µg/mL (≈ 0.056 µM) and 0.025 µg/mL (≈ 0.056 µM), respectively.

For `N[C@H]1CN(c2cc3c(cc2F)c(=O)c(C(=O)O)cn3C2CC2)[C@@H]2CCO[C@@H]21` (relative stereo) [Example 26], the MIC in test [1] was determined as 0.39 µg/mL (≈ 1.04 µM); in test [2] (setting [6]), 0.05 µg/mL (≈ 0.134 µM); in test [5], 0.013 µg/mL (≈ 0.0348 µM).

For the compound `COc1c(N2C[C@@H](N)[C@H]3OC(C)C[C@H]32)c(F)cc2c(=O)c(C(=O)O)cn(C3CC3)c12` (relative stereo) [Example 40, 7-[(1R*,5R*,8R*)-8-amino-3-methyl-2-oxa-6-azabicyclo[3.3.0]oct-6-yl]-1-cyclopropyl-6-fluoro-1,4-dihydro-8-methoxy-4-oxoquinoline-3-carboxylic acid], the MIC in test [1] amounted to 3.13 µg/mL (≈ 7.5 µM); in test [2] (setting [6]), 0.025 µg/mL (≈ 0.0599 µM); in test [3] (setting [8]), 1.56 µg/mL (≈ 3.74 µM); in test [5] it was 0.1 µg/mL (≈ 0.24 µM).
